In patent publication US12533348B2, “Ferroportin-inhibitors for the use in the treatment of transfusion-dependent beta-thalassemia (TDT)” (Vifor (International) AG, priority 2019, dated 2026):
Several values for one entry are separate records, joined by “and”; a condition that tells them apart may be missing. Equal values may be shown once. Entries after “also recorded” stand apart in the source; their conditions may differ.

How the values were obtained:
[1] = tested on: Hbb^th3/+ mouse model of β-thalassemia intermedia; test: Combination study: organ weights and tissue iron (ICP-OES) in liver, spleen, kidney; conditions: for effect on relative spleen weight in th3/+ animals: end of study d23 (FIG. 4); for relative spleen weight: percent of body weight; for relative spleen weight / kidney Fe conc. / liver Fe conc. / spleen Fe conc.: th3/+ mice, DFX 30 mg/kg QD, Fpn127 120 mg/kg QD p.o., end of study (day 23), mean
Method: The aim of this study was to test whether the concurrent use of the iron chelator DFX administered once daily (QD) alone at 30 mg/kg or in combination with Fpn127 administered QD at 120 mg/kg for 3 weeks is causing any therapeutic interactions in a mouse model of β-thalassemia intermedia (Hbb^th3/+; B6; 129P—b1tm1Unc-b2tm1Unc/J, Jackson Laboratories, Stock Number: 002683).
Animals were euthanized 1 h after the last dose of DFX on study day 23 (dosing day 17).
On the final study day (day 23), spleen, liver, and kidneys were collected and snap frozen in liquid nitrogen for further analysis, as outlined below. Wet weight of spleen, liver, and kidneys were recorded.
Content of total Fe was determined in pieces of spleens, livers, and kidneys by ICP-OES in the Analytical Development group of Vifor (International) Ltd., St. Gallen.
Individual wet weights of organs were recorded. Individual values of total Fe were measured in livers, spleens, and kidneys. Individual values of total Fe content and concentration were calculated. Mean±SD of total Fe concentration and content in livers, spleens, and kidneys was calculated for each group.

[2] = tested on: Hbb^th3/+ mouse model of β-thalassemia intermedia; test: Combination study: flow cytometric analysis of intracellular ROS, mitochondria and PS exposure in mature RBC; type: in vivo; conditions: for % Annex in V-positive RBCs (mean) / % Mito Tracker-positive RBCs (mean) / % ROS-positive RBCs (mean): th3/+ mice, all animals, mature RBCs in whole blood at end of study (pre-terminally d22)
Method: In peripheral blood taken on day 22 by tail vein incision, ROS were detected with the indicator chloromethyl-2′,7′-dichlorodihydrofluorescein diacetate (CM-H2DCFDA, Invitrogen), the presence of mitochondria was detected with MitoTracker Deep Red FM (Invitrogen), and PS exposure was detected using the Annexin V Apoptosis Detection Kit (Invitrogen) in mature RBC labelled with Ter119 and CD71 antibodies.
For all analysis, cells were analyzed on a CANTOII cytometer (BD Biosciences) and data were analyzed using FlowJo® software (FlowJo, LLC, version 10.2).

[3] = tested on: Hbb^th3/+ mouse model of β-thalassemia intermedia; test: Combination study: complete blood counts (ProCyte Dx); type: in vivo; conditions: for HCT / Leukocytes / Lymphocytes / MCH / MCHC / MCV / Neutrophils / RBC / RDW / RET / Ret-He: th3/+ mice, DFX 30 mg/kg QD, Fpn127 120 mg/kg QD p.o., whole blood day 23, all animals, mean
Method: Complete blood counts were performed on fresh EDTA-blood on an automated blood cell analyzer (ProCyte Dx®, IDEXX Laboratories) in-house.

[4] = tested on: C57BL/6 WT mice; test: Serum iron in C57BL/6 WT mice (previous study); type: in vivo, mouse; conditions: C57BL/6 WT mice dosed with 120 mg/kg for 20 h
[5] = tested on: rats; test: Serum iron after a single oral dose in rats; type: in vivo, rat; conditions: single oral dose of 100 mg/kg in rats
[6] = Half-life of orally administered Fpn127 in rodents; conditions: in vivo, po
[7] = tested on: Hbb^th3/+ mice; test: ROS levels in mature RBCs of Hbb^th3/+ mice, oral dosing 60 mg/kg twice daily, no BT; type: in vivo, mouse
[8] = tested on: Hbb^th3/+ mice; test: NTBI in plasma after blood transfusion (BT) in Hbb^th3/+ mice (Fe-NTA colorimetric assay); type: in vivo, mouse; conditions: single oral dose 120 mg/kg 30 min before BT, 3 h post BT (FIG. 13)
Method: In order to establish the kinetics of NTBI generation in Hbb th3/+ mice (B6.129P2-Hbb-b1tm1Unc Hbb-b2tm1Unc/J, #002683) following blood transfusion (BT) pilot experiments were performed. The wild-type (We) littermates of Hbbth3/+ were used as blood donors for transfusions. Peripheral blood was collected from terminally anesthetized WT mice via retro-orbital route from 3-5 female mice and seven parts of blood were mixed with one part of 14% citrate-phosphate-dextrose adenine and stored at 4° C. until the transfusion (24 h or 15 days). The donor blood was pre-warmed to 37° C. prior to the transfusion. […]
NTBI was measured in murine plasma samples by a Fe-Nitrilotriacetate (NTA)-based assay, adapted from a protocol published by Gosriwatana I et al. 1999 (Quantification of non-transferrin-bound iron in the presence of unsaturated transferrin. Gosriwatana I, Loreal O. Lu S, Brissot P, Porter J, Hider R C. Quantification of non-transferrin-bound iron in the presence of unsaturated transferrin. Anal Biochem. 1999 Sep. 10; 273(2):212-20. First, a solution of 800 mM Nitrilotriacetate acid (NTA) trisodium (Sigma, 72565) and a solution of 800 mM NTA disodium (Sigma, N0128) were prepared and then mixed together to obtain a solution at pH 7.0. […] After 30 minutes of incubation at room temperature, samples were measured in a plate reader (Biotec) at 537 nm.

O=C(O)c1ccc(-n2nc(-c3ccccc3O)nc2-c2ccccc2O)cc1 [DFX, deferasirox, reference compound]
effect on relative spleen weight in th3/+ animals [1]: no effect | relative spleen weight ([1]; all animals): 1.98±0.26% and 1.98% | relative spleen weight ([1]; females): 2.17% | relative spleen weight ([1]; males): 1.79% | kidney Fe conc. ([1]; all animals): 125.1 ± 22.2 µg/g and 125.1 µg/g | liver Fe conc. ([1]; all animals): 196.3 ± 62.5 µg/g and 196.3 µg/g | spleen Fe conc. ([1]; all animals): 1553.0 ± 144.7 µg/g and 1553.0 µg/g | kidney Fe conc. ([1]; females): 126.6 µg/g | liver Fe conc. ([1]; females): 241.2 µg/g | spleen Fe conc. ([1]; females): 1511.0 µg/g | kidney Fe conc. ([1]; males): 123.6 µg/g | liver Fe conc. ([1]; males): 151.5 µg/g | spleen Fe conc. ([1]; males): 1602.0 µg/g | % Annex in V-positive RBCs (mean) [2]: 0.47% | % Mito Tracker-positive RBCs (mean) [2]: 0.56% | % ROS-positive RBCs (mean) [2]: 41.56% | neutrophil counts ([3]; Hbb^th3/+ mice, day 23, potential inflammatory response): significantly increased | HCT [3]: 27.4% | Leukocytes [3]: 8.9 10E3/μL | Lymphocytes [3]: 7.4 10E3/μL | MCH [3]: 10.4 pg | MCHC [3]: 25.4 g/dL | MCV [3]: 41.1 fL | Neutrophils [3]: 1.2 10E3/μL | RBC [3]: 7.7 10E6/μL | RDW [3]: 47.0% | RET [3]: 1760 10E3/μL | Ret-He [3]: 12.8 pg

O=C(NCc1ncccc1F)c1coc(CCNCCc2nc3ccccc3[nH]2)n1 [Fpn127]
effect on total liver iron concentration vs vehicle-treated th3/+ mice ([1]; end of study (FIG. 3)): no effect on liver iron concentration | effect on total spleen iron concentration vs vehicle-treated th3/+ mice ([1]; end of study (FIG. 4)): significantly increased | effect on total kidney iron concentration vs vehicle-treated Hbbth3/+ mice ([1]; end of study (FIG. 5)): significantly reduced | effect on relative spleen weight in th3/+ animals [1]: significantly reduced | relative spleen weight ([1]; all animals): 0.99±0.18% and 0.99% | relative spleen weight ([1]; females): 1.12% | relative spleen weight ([1]; males): 0.86% | kidney Fe conc. ([1]; all animals): 126.7 ± 23.6 µg/g and 126.7 µg/g | liver Fe conc. ([1]; all animals): 332.2 ± 75.2 µg/g and 332.2 µg/g | spleen Fe conc. ([1]; all animals): 2738.0 ± 300.8 µg/g and 2738.0 µg/g | kidney Fe conc. ([1]; females): 138.9 µg/g | liver Fe conc. ([1]; females): 371.8 µg/g | spleen Fe conc. ([1]; females): 2713.0 µg/g | kidney Fe conc. ([1]; males): 114.5 µg/g | liver Fe conc. ([1]; males): 292.5 µg/g | spleen Fe conc. ([1]; males): 2760.0 µg/g | serum iron in WT mice [4]: restored to the baseline levels | duration of reduction in serum iron [5]: at least 8 h | half-life [6]: ~2 h | proportion of PS-positive RBC (annexin V staining) ([2]; Hbbth3/+ mice (FIG. 12)): significantly decreased | RBC function/quality (oxidative stress, apoptosis and maturation) ([2]; Hbbth3/+ mice, summary): improved RBC quality | proportion of ROS-producing RBC ([2]; compared to Hbbth3/+ mice treated with vehicle or DFX alone, CM-H2DCFDA (FIG. 12)): significantly decreased | RBC containing mitochondria ([2]; compared to vehicle-treated and DFX-treated Hbbth3/+ mice (FIG. 12)): less RBC containing mitochondria | % Annex in V-positive RBCs (mean) [2]: 0.29% | % Mito Tracker-positive RBCs (mean) [2]: 0.19% | % ROS-positive RBCs (mean) [2]: 32.82% | ROS levels in RBCs ([7]; 15 days of oral dosing 60 mg/kg twice daily (FIG. 2B), 60 mg/kg): decreased ROS levels; also recorded: further decreased | ROS levels in RBCs ([7]; day 8 of oral dosing 60 mg/kg twice daily (FIG. 2A)): decreased ROS levels | NTBI in plasma after blood transfusion [8]: prevents release; also recorded: prevented the increase of NTBI | leukocyte, neutrophil and lymphocyte counts ([3]; Hbb^th3/+ mice, day 23 (FIG. 8), for DFX alone: total leukocyte and lymphocyte counts): reduced to levels similar to WT | RBC indices (RBC counts, hematocrit, RDW, reticulocyte counts) ([3]; Hbbth3/+ mice, day 23 (FIG. 7)): significantly improved | HCT [3]: 31.2% | Leukocytes [3]: 5.7 10E3/μL | Lymphocytes [3]: 5.0 10E3/μL | MCH [3]: 9.9 pg | MCHC [3]: 27.4 g/dL | MCV [3]: 36.4 fL | Neutrophils [3]: 0.3 10E3/μL | RBC [3]: 9.9 10E6/μL | RDW [3]: 39.1% | RET [3]: 1332 10E3/μL | Ret-He [3]: 11.8 pg
